How the values were obtained:
[1] = tested on: sulphur reducing bacteria; experiment: Antibacterial activity against sulphur reducing bacteria, inhibition zone; format: cell-based
From the text: The results of the synthesized cationic surfactants against sulphur reducing bacteria recorded in Table 4.

[2] = tested on: Ehrlich ascites carcinoma (EAC) cells; experiment: Antitumor activity using Ehrlich ascites carcinoma (EAC), in vitro percentage of nonviable cells; format: cell-based, mice; conditions: NVC %
Method: (§1) Olylammonium hydrogen selenites hydrogen selenite with its cobalt and platinum complexes were investigated as potential selective, anticancer prodrugs. They were tested by using Ehrlich Acites Carcinoma (EAC) as a model system of mice cell tumor. These compounds were also Tested in vitro on human […] monolayer tumor cell lines: MCF7 (Breast carcinoma), HEPG2 (liver carcenoma), U 251 ([…]) and HCT116 (colon carcinoma).
Ehrlich ascites carcinoma cells as a model system was based on the finding that it is excellent tool for studying the biological behavior of malignant tumors and drug action with cells. A line of Ehrlich ascites carcinoma (EAC) which used in the present study had been kindly supplied from National Cancer Institute, Cairo, Egypt, and maintained in female Swiss albino mice through weekly […] transplantation of 2.5×10^6 tumor cells/mouse. EAC cells were obtained by needle aspiration with aseptic condition. The ascetic fluid was diluted with sterile saline so that 0.1 ml contains 2.5×10^6 cells counted microscopically using a haemocytometer. In vitro studying of these compounds antitumor activity was determined according to the percentage of nonviable cells (NVC %) which was calculated by the following equation NVC %=[number of NVC/total number of cells][…].

[3] = tested on: MCF7 (Breast carcinoma); experiment: Cytotoxic activity on human tumor cell line MCF7; format: cell-based; conditions: dose to reduce survival to 50%
Method: as §1
(§2) The results of the cytotoxic activity on human tumor cell lines were determined according to the dose values of drug exposure for cell lines to reduce survival to 50% (Ic50). The experimental results recorded in Table (3).

[4] = tested on: HCT116 (colon carcinoma); experiment: Cytotoxic activity on human tumor cell line HCT116; format: cell-based; conditions: dose to reduce survival to 50%
Method: as §1, §2

[5] = tested on: HELA; experiment: Cytotoxic activity on human tumor cell line HELA; format: cell-based; conditions: dose to reduce survival to 50%
Method: as §1, §2

[6] = tested on: HEPG2 (liver carcenoma); experiment: Cytotoxic activity on human tumor cell line HEPG2; format: cell-based; conditions: dose to reduce survival to 50%
Method: as §1, §2

[7] = Critical micelle concentration (CMC) and surface parameters of the surfactants; format: physicochemical; parameters: PC20: unit not given here
From the text: That fact could be explained from the unique property of the metal complexes in water. That is the complexes retain its unity in their solutions, which increased their volume in the aqueous media and then repulsion is occurred between the hydrophobic chain and water molecules. […] The efficiency “PC20” increase with increasing molar ratio of methylene units. These due to the fact that the efficiency of adsorption at interfaces increase linearly with increase in the carbon atoms in hydrophobic group. In case of the prepared parent cationic surfactants by increasing the number methylene units Maximum surface excess Γmax increases, this due to migration of molecules to the water-air interface. The consequence increase of Γmax leads to crowdiness occurred at the interface which causing decrease in Minimum area per molecule Amin values. That is due to the minimum surface area decrease with increasing the hydrophobic chain length of the synthesized surfactant molecules. The standard free energies of micellization ΔG° mic and adsorption ΔG° ads values are always negative indicating the spontaneously of these two processes but there is more increase in negativity of ΔG° ads rather than those of micellization indicating the tendency of the molecules to be adsorbed at the interface.

CCCCCCCC/C=C\CCCCCCCCN.O=[Se](O)O [IIa, olylammonium hydrogen selenite]
Inhibition zone diameter [1]: 25 mm/mg sample
Percent nonviable cells ([2]; Conc. 25 μg/ml): 10%
Percent nonviable cells ([2]; Conc. 50 μg/ml): 20%
Percent nonviable cells ([2]; Conc. 100 μg/ml): 40%
MCF7 (IC50) [3]: does not reach to Ic50
HCT116 (IC50) [4]: does not reach to Ic50
HELA (IC50) [5]: does not reach to Ic50
HEPG2 (IC50) [6]: does not reach to Ic50
Δ Gads/Amin [7]: −46.8
ΠCMC [7]: 39 mN/m
CMC × 10−3 ([7]; critical micelle concentration, values × 10−3): 1.3
PC20 ([7]; efficiency): 3.8
Γmax × 10−11 ([7]; maximum surface excess, values × 10−11): 10.6 Mole/cm^2
A min ([7]; minimum area per molecule): 1.6 nm2
Δ Gads ([7]; standard free energy of adsorption): −67.7
Δ Gmic ([7]; standard free energy of micellization): −34.1
γCMC ([7]; surface tension at CMC): 33 mN/m
